In publication PMC4700278, “Molecular and Biochemical Analysis of the Estrogenic and Proliferative Properties of Vitamin E Compounds” (Frontiers in Oncology, 2016):

What was measured:
ERβ [1] = molecular target: T1, ERβ (Homo sapiens, UniProt Q92731); settings: HELN-ERβ cells; 500 μM
Text: MELN cells were established by transfecting ER(+) MCF-7 cells with the ERE-β-globin-tk-Luc-SV-Neo plasmid ([36]). HELN cells were generated by transfection of ER(−) HeLa cells with this plasmid. The HELN-ERα, HELN-ERβ, HELN-ΔAB-ERα, and HELN-ΔAB-ERβ cell lines then underwent a second transfection with the corresponding pSG5-puro plasmids (pSG5-ERα-puro, pSG5-ERβ-puro, pSG5-ΔAB-ERα-puro, and pSG5-ΔAB-ERβ-puro, respectively) and expressed wild-type or mutated ERα or ERβ ([39], [40]). […] Luciferase activity was measured using the luciferase assay reagent (Promega), according to the manufacturer’s instructions. Protein concentrations were measured using the Bradford technique ([41]) to normalize the luciferase activity data. For each condition, average luciferase activity was calculated from the data of three independent wells.
Figure 3 Measurement of estrogenicity of tocols in vitro. […] MCF-7 extracts were analyzed for the presence of ERα by western blotting using GAPDH as a control. […] The ratio of ERα to GAPDH levels in each experiment was determined densitometrically and normalized to control value (taken to be 1). […] The relative expression of TGFα, PR, and Ps2 (TFF1) after 16 h was analyzed by quantitative RT-PCR. […]

PR = assay: Quantitative RT-PCR of endogenous E2-regulated gene in MCF-7 cells; assay type: cell-based, human; settings: 500 μM, 16 h
Protocol: (§1) Figure 3 Measurement of estrogenicity of tocols in vitro. (A) Dose–response curve of the effect of tocols on MCF-7 cells stably transfected with the ERE-β-globin-tk-Luc plasmid (MELN cells). […] Data shown are the mean values ± SEM from three independent experiments. (C) δ-TP or δ-TT stabilized ER-α in MCF-7 cells. […] MCF-7 extracts were analyzed for the presence of ERα by western blotting using GAPDH as a control. […] The western blot shown is representative of three independent experiments. […] (D) Effect of δ-tocols on estrogen response element-dependent luciferase activity in HELN cells, which are HELA cells transfected with either fully functional ERα or ERβ or their mutated versions containing a deletion the AB domain (ΔAB). […] Data shown are the mean values ± SEM from three independent experiments. (E) δ-Tocols modulate the induction of endogenous genes under the control of ER. […] Cells were treated with 500 μM δ-tocols in the presence or in the absence of ICI. The relative expression of TGFα, PR, and Ps2 (TFF1) after 16 h was analyzed by quantitative RT-PCR. Data shown are the mean values ± SEM from three independent experiments.

Ps2 (TFF1) = assay: as above; assay type: cell-based, human; settings: 500 μM, 16 h
Protocol: as §1

TGFα = assay: as above; assay type: cell-based, human; settings: 500 μM, 16 h
Protocol: as §1

ERβ [2] = molecular target: T1, ERβ; assay: Estrogen receptor-binding assay, competition with [3H]-17β-estradiol; design: expressed in transfected cells; host or cells: Cos-7; settings: extracts of cos-7 cells expressing human ERβ; 2 nM [3H]-E2; tocols 1 μM to 1 mM; N.M. = not measurable

T1 sequence (Q92731 whole entry): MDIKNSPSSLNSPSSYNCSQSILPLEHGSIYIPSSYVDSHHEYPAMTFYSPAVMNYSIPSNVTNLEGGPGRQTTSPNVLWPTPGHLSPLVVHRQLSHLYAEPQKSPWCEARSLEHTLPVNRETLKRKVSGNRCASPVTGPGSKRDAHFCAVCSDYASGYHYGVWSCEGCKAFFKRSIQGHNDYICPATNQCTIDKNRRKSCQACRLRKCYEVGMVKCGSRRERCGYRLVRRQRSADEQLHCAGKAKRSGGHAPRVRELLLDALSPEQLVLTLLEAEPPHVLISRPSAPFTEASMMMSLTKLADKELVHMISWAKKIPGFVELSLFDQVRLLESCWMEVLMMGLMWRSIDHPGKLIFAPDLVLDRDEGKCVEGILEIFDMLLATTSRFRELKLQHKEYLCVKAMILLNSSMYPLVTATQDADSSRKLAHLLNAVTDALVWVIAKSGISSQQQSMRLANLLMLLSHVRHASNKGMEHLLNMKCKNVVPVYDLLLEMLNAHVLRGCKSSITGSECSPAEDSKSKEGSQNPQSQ

IC50 (ERβ [2]): 91 ± 7 µM
Compound: CC(C)=CCC/C(C)=C/CC/C(C)=C/CC[C@]1(C)CCc2cc(O)cc(C)c2O1 [δ-TT, δ-tocotrienol]
ER-dependent luciferase activity through ERβ (ERβ [1]): activate ER-dependent luciferase activity
transcription of PR (fold increase) (PR): 1.6 fold
transcription of Ps2 (fold increase) (Ps2 (TFF1)): twofold
transcription of TGFα (fold increase) (TGFα): 1.1 fold
